Measured values as given in PMC9563435, “Comparison of Different Clinical Chemotherapeutical Agents’ Toxicity and Cell Response on Mesenchymal Stem Cells and Cancer Cells” (Cells, 2022).
Entries after “also recorded” stand apart in the source; their conditions may differ. Counter-ions that a name gives are not always drawn. Values belong to the molecule of their own block, whether it stands above or below them.

Assays:
Ad-MSC 3 cells [1] = assay: Apoptosis assay (Annexin V / TO-PRO-3 flow cytometry), Ad-MSC 3; format: cell-based, human; details: for apoptosis induction in MSCs (in words): several concentrations, data not shown; for type of cell death in MSCs (in words): high concentrations: doxorubicin 1 µM, nutlin-3 50 µM
Method: Apoptosis detection was based on the Annexin-V molecule binding to phosphatidylserine membrane molecules. Two cell lines were used to study apoptosis: Ad-MSC 3 cells were plated in a 5 × 10^4 cells/well concentration, while 4 × 10^4/well A431-mCh were seeded into each well in a 12-well tissue culture plate. […] At day 5, cells were trypsinized and centrifuged, while the supernatant was also collected and combined with the detached cells to include all already dead cells. Cells were washed twice with 500 µL of 1% BSA-PBS (bovine serum albumin dissolved in PBS, A8022, Sigma-Aldrich, St. Louis, MO, USA) solution and centrifuged at 400× G for 4 min. Cells were resuspended in 100 µL of 1× Annexin Binding Buffer (422201, Biolegend, San Diego, CA, USA), and 3 µL of Annexin V-Pacific Blue (A35122, Biolegend, San Diego, CA, USA) and 1 µL of TO-PRO-3 (R37170, Invitrogen, Waltham, MA, USA) were added to each sample. After 15 min of incubation, labeled and non-labeled samples were diluted 5-fold with 1× Annexin Binding Buffer and analyzed by Attune™ NxT flow cytometer.

[2] = test system: 6 MSCs and 3 cancer cell lines; assay: Cytotoxicity / cell viability assay (PrestoBlue), panel of MSCs and cancer cell lines; format: cell-based, human; details: for drug sensitivity of MSCs compared with cancer cells (in words): IC50 comparison
Method: (§1) Cells were seeded in a 96-well tissue culture plate in 100 µL of medium. Ad-MSC-GFP 1, iAd-MSC-GFP 1, Ad-MSC-GFP 2, Ad-MSC-GFP 3, BM-MSC, and HFF were seeded at 5 × 10^3/100 µL/well density and A431-mCh, MES-SA-mCh, and MCF-7-GFP at 4 × 10^3 cells/100 µL/well concentration in DMEM-F12 media. Different initial cell numbers were used due to different proliferation rates of different cell types. Cells were allowed to attach overnight at 37 °C and the day after were treated with the drugs using the indicated concentrations in 100 µL. Cell viability was measured by using PrestoBlue™ Cell Viability Reagent (A13232, Invitrogen, Waltham, MA, USA). To address metabolic differences between cancer cells and MSCs, the assay was optimized for each cell line, cells were incubated with 5 or 12.5% PrestoBlue™ Cell Viability Reagent diluted in PBS at 37 °C/5% CO2 for 1–1.5 h 5 days after the treatment. The fluorescence signal was measured by an EnSpire (Perkin Elmer, Waltham, MA, USA) fluorometer at 555 nm (excitation)/585 nm (emission) wavelength.
After the incubation period, the relative fluorescence data was measured. The data was normalized with the fluorescence of blank samples (cell culture media). A sigmoidal dose–response curve was fitted to the normalized measurement data and the logarithm of the concentration using the least square method. An inhibitory concentration of 50% (IC50 and log10) was interpolated from the fitted graph. […] In these cases, IC50 was calculated from the line connecting the measurement points. For repeated measurements, average and standard deviation was calculated based on the logarithm of the IC50 values.
To compare the mean IC50 values of six mesenchymal stem cell lines (Group-1) and three cancer cell lines (Group-2), first an F-test was performed to check equal variances between the groups, then two-sample unpaired t-tests were performed to calculate significance using Microsoft® Excel® 2016 (16.0.4266.1001).

Ad-MSC-GFP 3 cells [3] = assay: Cytotoxicity / cell viability assay (PrestoBlue) on Ad-MSC-GFP 3; format: cell-based, human; details: Homo sapiens, 120 h; Ad-MSC-GFP 3 / Ad-MSC 3, 5 days
Method: as §1
(§2) After the incubation period, the relative fluorescence data was measured. The data was normalized with the fluorescence of blank samples (cell culture media). […] In these cases, IC50 was calculated from the line connecting the measurement points. For repeated measurements, average and standard deviation was calculated based on the logarithm of the IC50 values.

A431-mCh cells [4] = assay: Cytotoxicity / cell viability assay (PrestoBlue) on A431; format: cell-based, human
Method: as §1, §2

Ad-MSC-GFP 3 cells [5] = assay: Live cell imaging, confluency, Ad-MSC-GFP 3; format: cell-based, human
Method: (§3) JuLI™ Stage Cell History Recorder was used to monitor a five-day cytotoxicity assay on Ad-MSC-GFP 3 and A431-mCh cell lines. […] Images were taken every 105 min for 120 h at 10× objective magnification. Live cell microscopy studies were evaluated using the “Growth curve” function of the JuLI STAT image analysis software (v2.0.1.0).

A431-mCh cells [6] = assay: Live cell imaging, confluency, A431-mCh; format: cell-based, human; details: 120 h
Method: as §3

Ad-MSC-GFP 3 cells [7] = assay: γ-H2AX staining of DNA double-stranded breaks, Ad-MSC-GFP 3; format: cell-based, human; details: 120 h; IC50 concentrations of A431 (2 µM cisplatin, 0.1 µM doxorubicin, 30 µM nutlin-3)
Method: (§4) Ad-MSC-GFP 3 cells were seeded into glass-bottomed chamber slides (ibidi, Germany, Grafelfing, Germany) at 1 × 10^4/well and A431-mCh at 1.6 × 10^4/well density. […] Cells in all chambers were fixed with 4% PFA for 15 min and washed twice with PBS. Blocking solution (0.5% BSA-PBS, 0.1% TritonX-100, 5% goat serum, and 1% fish gelatin) was used for 1 h. γ-H2A.X primary antibody (MA1-2022, Invitrogen, United States) was diluted in blocking solution at 1:500 concentration and incubated overnight at 4 °C. Afterwards, the cells were washed with PBS twice and goat anti-mouse A633 secondary antibody (A21052, abcam, Cambridge, UK) was diluted at 1:250 concentration in blocking solution. Nuclei was stained with a Hoechst-33342 (23491-52-3, Dojindo, Kumamoto, Japan) at 1:1000 concentration.
(§5) To quantify DNA damage based on immunofluorescence against γ-H2AX, a semi-automated image analysis pipeline was set up using CellProfiler v4.1.3 [10]. First, images showing DAPI-stained nuclei were pre-processed by intensity normalization and Gaussian filtering (ϭ = 20 px) to suppress noise and remove artifacts caused by debris. Nuclei candidates were identified by threshold-based segmentation; false candidates were removed from the analysis manually. Using the remaining nuclei regions as masks, pixel intensities were measured on the γ-H2AX channel, thus, excluding non-nuclei signals.

A431-mCh cells [8] = assay: γ-H2AX staining of DNA double-stranded breaks, A431-mCh; format: cell-based, human; details: 120 h; IC50 concentrations of A431 (2 µM cisplatin, 0.1 µM doxorubicin, 30 µM nutlin-3)
Method: as §4, §5

Ad-MSC 3 cells [9] = assay: ROS induction (DCFH-DA), Ad-MSC 3; format: cell-based, human; details: 1 h
Method: (§6) Ad-MSC 3 and A431 cells were seeded in a 96-well tissue culture plate and incubated for 24 h as described above. Cells were washed twice with HBSS and incubated in 100 µL of DCFH-DA dye (R252-10, Dojindo) according to the manufacturer’s instructions. Cells were incubated for 30 min at 37 °C and washed twice with HBSS. […] Supernatant was removed, and the cells were washed with HBSS before imaging with the JuLI^TM Stage Cell History Recorder (NanoEnTek).

A431 cells [10] = assay: ROS induction (DCFH-DA), A431; format: cell-based, human; details: 1 h
Method: as §6

Ad-MSC 3 cells [11] = assay: Cell proliferation (CytoTell) and light microscopy after treatment, Ad-MSC 3; format: cell-based, human; details: 0.1 µM
Method: (§7) Cell division was analyzed by the fluorescent CytoTell Green dye (AAT Bioquest, Sunnyvale, CA, USA) according to the manufacturer’s guidelines. Briefly, 3 × 10^5 cells were centrifuged and stained with 2 µL of CytoTell dye diluted in 1 mL of serum-free DMEM and incubated at 37 °C for 30 min. After centrifugation, half of the cells (1.5 × 10^5) were plated into T25 cell culture flasks in 5 mL of media and analyzed at day 5. Day 1 samples were co-stained with Zombie Violet dye (423113, Biolegend) to exclude dead cells and analyzed by Attune™ NxT flow cytometry. Brightfield images were taken with the Olympus IX51 microscope. The scale bar is the same in every image.

A431 cells [12] = assay: Cell proliferation (CytoTell) and light microscopy after treatment, A431; format: cell-based, human; details: 0.1 µM
Method: as §7

A431 cells [13] = assay: Apoptosis assay (Annexin V / TO-PRO-3 flow cytometry), A431; details: 120 h
[14] = different concentrations incl. higher

SMILES: OO [H2O2]
apoptosis induction in MSCs (in words) (Ad-MSC 3 cells [1]): not able to induce apoptosis

SMILES: c1ccc(CN(CCN(Cc2ccccn2)Cc2ccccn2)Cc2ccccn2)nc1 [TPEN]
drug sensitivity of MSCs compared with cancer cells (in words) ([2]; 5 days treatment): equally toxic to both MSCs and cancer cells

SMILES: [Cl][Co][Cl] [cobalt chloride]
apoptosis induction in MSCs (in words) (Ad-MSC 3 cells [1]): not able to induce apoptosis

SMILES: COc1cccc2c1C(=O)c1c(O)c3c(c(O)c1C2=O)C[C@@](O)(C(=O)CO)C[C@@H]3O[C@H]1C[C@H](N)[C@H](O)[C@H](C)O1 [doxorubicin, doxorubicin hydrochloride]
drug sensitivity of MSCs compared with cancer cells (in words) ([2]; 5 days treatment): equally toxic to MSCs and cancer cells | IC50 (Ad-MSC-GFP 3 cells [3]): 100 nM | IC50 (A431-mCh cells [4]; Homo sapiens, A-431, 120 h, A431, 5 days): 100 nM | decrease of cultures in live cell imaging (Ad-MSC-GFP 3 cells [5]; 120 h of treatment): no significant decrease | number of viable colonies in live cell imaging (A431-mCh cells [6]; IC50 of A431-mCh and 10-fold higher concentration): significantly reduced the number of viable colonies | growth kinetics in live cell imaging (A431-mCh cells [6]; concentration 10-fold lower than A431-mCh IC50): did not alter growth kinetics | DNA double-stranded breaks (γ-H2AX) (Ad-MSC-GFP 3 cells [7]): no DNA break was detected | DNA damage (γ-H2AX) (A431-mCh cells [8]): massive DNA damage | ROS induction (Ad-MSC 3 cells [9]; [14]): did not induce ROS | ROS induction (A431 cells [10]; [14]): did not induce ROS | apoptosis (in words) (Ad-MSC 3 cells [1]; 0.1 µM, 120 h): apoptosis was not detected | apoptosis / cell death (in words) (Ad-MSC 3 cells [1]; concentration increased 10-fold (1 µM), 120 h): only late necrosis was found | type of cell death in MSCs (in words) (Ad-MSC 3 cells [1]): necrotic cell death | cell number (light microscopy) (Ad-MSC 3 cells [11]): reduced cell number | proliferation (CytoTell) (Ad-MSC 3 cells [11]; five-day treatment): decreased proliferation | cell killing (light microscopy) (A431 cells [12]): killed most of the cancer cells | proliferation (CytoTell) (A431 cells [12]; five-day treatment): decreased proliferation | apoptosis (in words) (A431 cells [13]; 0.1 µM): apoptosis in almost all A431 cells

SMILES: CCc1c2c(nc3ccc(OC(=O)N4CCC(N5CCCCC5)CC4)cc13)-c1cc3c(c(=O)n1C2)COC(=O)[C@]3(O)CC [irinotecan, irinotecan hydrochloride]
drug sensitivity of MSCs compared with cancer cells (in words) ([2]; 5 days treatment): required significantly higher concentrations to kill MSCs than cancer cells

SMILES: CN(Cc1cnc2nc(N)nc(N)c2n1)c1ccc(C(=O)N[C@@H](CCC(=O)O)C(=O)O)cc1 [methotrexate]
drug sensitivity of MSCs compared with cancer cells (in words) ([2]; 5 days treatment): only toxic to A431-mCherry cells | sensitivity of A431 cells (in words) (A431-mCh cells [4]; compared with the other cell lines): extreme sensitivity; also recorded: hypersensitive

SMILES: O=C1c2c(O)ccc(O)c2C(=O)c2c(NCCNCCO)ccc(NCCNCCO)c21 [mitoxantrone]
drug sensitivity of MSCs compared with cancer cells (in words) ([2]; 5 days treatment): required significantly higher concentrations to kill MSCs than cancer cells | apoptosis induction in MSCs (in words) (Ad-MSC 3 cells [1]): not able to induce apoptosis

concentration at which significant drops in confluency were seen, as multiple of Ad-MSC-GFP 3 IC50 (Ad-MSC-GFP 3 cells [5]; 120 h live cell imaging): 3 fold
SMILES: COc1ccc(C2=N[C@@H](c3ccc(Cl)cc3)[C@@H](c3ccc(Cl)cc3)N2C(=O)N2CCNC(=O)C2)c(OC(C)C)c1 [nutlin-3]
effect on cultures in live cell imaging (A431-mCh cells [6]; either concentration, p53 mutant): no effect | DNA double-stranded breaks (γ-H2AX) (Ad-MSC-GFP 3 cells [7]): no DNA break was detected | DNA damage (γ-H2AX) (A431-mCh cells [8]): massive DNA damage | ROS induction (Ad-MSC 3 cells [9]; 30 µM): considerable amount of ROS | ROS induction (A431 cells [10]; 30 µM): considerable amount of ROS | apoptosis (in words) (Ad-MSC 3 cells [1]; 30 µM, 120 h): only a slight increase in the number of apoptotic MSCs | type of cell death in MSCs (in words) (Ad-MSC 3 cells [1]): necrotic cell death | apoptosis (in words) (A431 cells [13]; 30 µM): modest apoptotic response

SMILES: CN[C@@H]1C[C@H]2O[C@@](C)([C@@H]1OC)n1c3ccccc3c3c4c(c5c6ccccc6n2c5c31)C(=O)NC4 [staurosporine]
apoptosis induction in MSCs (in words) (Ad-MSC 3 cells [1]): not able to induce apoptosis

SMILES: Cn1nnc2c(C(N)=O)ncn2c1=O [temozolomide]
IC50 ([2]; Homo sapiens, all cell lines of the screening, read-out: toxic concentration in the IC50 screening (not toxic even at)): > 1 mM

SMILES: CC[C@]1(O)C[C@@H]2CN(CCc3c([nH]c4ccccc34)[C@@](C(=O)OC)(c3cc4c(cc3OC)N(C)[C@H]3[C@@](O)(C(=O)OC)[C@H](OC(C)=O)[C@]5(CC)C=CCN6CC[C@]43[C@@H]65)C2)C1 [vinblastine]
drug sensitivity of MSCs compared with cancer cells (in words) ([2]; 5 days treatment): required significantly higher concentrations to kill MSCs than cancer cells | IC50 values in MSCs relative to cancer cells ([2]; 5 days treatment, MSCs higher than cancer cells): 1000 fold
